The text below walks through data of patent US9126891B2, “Cycloalkyl-diamines” (MediSynergics, LLC, priority 2014, dated 2015).

Assay [1] concerns T. brucei brucei clone 427-221a (bloodstream forms). The assay can be described thus: T. brucei brucei growth inhibition assay (CellTiter-Glo ATP bioluminescence). The format is cell-based. Conditions: 40 hours incubation, 95% Confidence Intervals in parentheses, read-out: T. b. brucei IC50. How it is done:
The growth inhibition assay for T. brucei brucei was conducted as described previously by Z. B. Mackey (Kenny K. H. Ang, Joseline Ratnam, Jiri Gut, Jennifer Legac, Elizabeth Hansell, Zachary B. Mackey, Katarzyna M. Skrzypczynska, Anjan Debnath, Juan C. Engel, Philip J. Rosenthal, James H. McKerrow, Michelle R. Arkin, Adam R. Renslo (2010) “Mining a Cathepsin Inhibitor Library for New Antiparasitic Drug Leads”, PLoS Neglected Tropical Diseases, 5(5):e1023). Bloodstream forms of the monomorphic T. brucei brucei clone 427-221a were grown in complete HMI-9 medium containing 10% FBS, 10% Serum Plus medium (Sigma Inc., St. Louis, Mo., USA), 50 U/mL penicillin and […] streptomycin (Invitrogen) at 370 C under a humidified atmosphere and 5% CO2. […] of each dilution was added to […] of diluted parasites ([…]) in sterile Greiner 96-well flat white opaque culture plates such that the final DMSO concentration was 0.5%. The 0% inhibition control wells contained 0.5% DMSO while 100% inhibition control wells contained 50 mM thimerosal (Sigma-Aldrich, St. Louis, Mo.). After compound addition, plates were incubated for 40 hours at 370 C. At the end of the incubation period, […] of CellTiter-Glo™ reagent (Promega Inc., Madison, Wis., USA) was added to each well and plates were placed on an orbital shaker at room temperature for 2 min to induce lysis. After an additional 10 min of incubation without shaking, to stabilize the signal, the ATP-bioluminescence of each well was determined using an Analyst HT Plate Reader (Molecular Devices, Sunnyvale, Calif., USA). Raw values were converted to log 10 and percentage inhibition calculated relative to the controls. IC50 curve fittings were performed with Prism 4 software as above. Pentamidine was used as a comparator in the assay.
(In general: Cellular ATP, detected with luciferase, serves as a proxy for viable cell number.)

The test system of the next assay is P. falciparum strain 3D7. In words: Plasmodium falciparum activity assay (SYBR Green I method). The format is cell-based. Conditions: strain 3D7 in human erythrocytes, 72 h incubation. How it is done:
P. falciparum strain 3D7 was cultured according to the method of Trager and Jensen (W. Trager, J. B. Jensen (1976) “Human malaria parasites in continuous culture”, Science, 193(4254):673-5) with minor modifications. Parasites were grown in human erythrocytes (2% hematocrit) in an atmosphere of 5% CO2, 5% O2, 90% N2 in RPMI 1640 medium (Gibco) supplemented with 25 mM hepes buffer (Sigma), 25 mg/L gentamicin (Gibco, Life Technologies, Grand Island, N.Y.), 1 mM sodium pyruvate (Sigma), 50 mg/L hypoxanthine (Sigma), 2 g/L glucose (Sigma), 2.52 g/L sodium bicarbonate (Sigma) and 5 g/L Albumax 1 (Gibco). In vitro antimalarial activity was determined by the SYBR Green I method described by Smilkstein (Smilkstein M, Sriwilaijaroen N, Kelly J X, Wilairat P, Riscoe M. (2004) “Simple and inexpensive fluorescence-based technique for high-throughput antimalarial drug screening”. Antimicrob. Agents Chemother., 48(5):1803-6. PMCID: 400546) with modifications (see Winter R W, Kelly J X, Smilkstein M J, Dodean R, Bagby G C, Rathbun R K (2006) “Evaluation and lead optimization of anti-malarial acridones”. Exp. Parasitol., 114(1):47-56). […] After incubation for 1 h at room temperature in the dark, plates were read on a Safire2 (Tecan) plate reader with excitation and emission wavelengths of […], respectively. […]

One may read the IC50 as the concentration that inhibits the measured activity by half.

Turning to `CN[C@]1(c2ccccc2Cl)CCCC[C@H]1NCCCn1ccnc1` (relative stereo) [Example 12a, Trans-1-(2-chlorophenyl)-N^2-(3-(1-imidazolyl)-propyl)-N^1-methylcyclohexane-1,2-diamine], the IC50 in assay [1] is 16 µM.
As to `CN[C@@]1(c2ccccc2Cl)CCCC[C@H]1NCCCc1ccccc1` (relative stereo) [Example 15b, Cis-1-(2-chlorophenyl)-N^2-(3-phenylpropyl)-N^1-methylcyclohexane-1,2-diamine], the IC50 is 4.6 µM in assay [1] and 2.5 µM in the assay with P. falciparum strain 3D7.
For `CN[C@@]1(c2ccccc2Cl)CCCC[C@H]1NCCCN1CCOCC1` (relative stereo) [Example 16b, Cis-1-(2-chlorophenyl)-N^2-(3-(morpholin-1-yl)propyl)-N^1-methylcyclohexane-1,2-diamine], the figures for the IC50 (in assay [1]; in the assay on P. falciparum strain 3D7) were 1.7 µM and 18 µM, respectively.
